Experimental data taken from the PolyMetriX glass transition set.

Row | SMILES | glass transition temperature [°C]
1 | *CC/C=C(/*)C(C)(C)C (repeat unit) | 20.00
2 | *CC(*)c1cc(Br)ccc1OCCCC (repeat unit) | 47.00
3 | *CCN(*)C (repeat unit) | -31.00
4 | *CCCCOc1ccc(C(=O)OC(=O)c2ccc(O*)cc2)cc1 (repeat unit) | 45.00
5 | *CCCCCCNC(=O)NCc1ccc(CNC(=O)N*)cc1 (repeat unit) | 72.00
6 | *CCCCCCOC(=O)C(Cc1ccccc1)NC(=O)/C=C/C(=O)NC(Cc1ccccc1)C(=O)O* (repeat unit) | 92.00
7 | *Cc1ccc(CNC(=O)CC(C)(C)CC(C)C(=O)N*)cc1 (repeat unit) | 125.00
8 | *CC(OCC)C(C(=O)OC)C(*)C(=O)OC (repeat unit) | 50.00
9 | *CC(*)(C)C(=O)OCCN(C)c1ccc(/N=N/c2ccc(/N=N/c3ccc(C#N)cc3)cc2C)cc1 (repeat unit) | 120.00
10 | *C1C2CC(CCCCCCCCC(=O)OCC)C(C2)C1* (repeat unit) | 134.00
11 | *Oc1ccc(C(=O)OCCOCCOC(=O)c2ccc(OC(*)=O)cc2)cc1 (repeat unit) | 51.00
12 | *Cc1cccc(CNC(=O)CCC2(CCC(=O)N*)c3ccccc3-c3ccccc32)c1 (repeat unit) | 150.00
13 | */C=C(/*)c1ccccc1[Si](C)(C)C (repeat unit) | 190.00
14 | *Cc1cccc(COC(=O)Nc2ccc(Cc3ccc(NC(=O)O*)cc3)cc2)c1 (repeat unit) | 106.00
15 | *O[Si](C)(C)O[Si](C)(C)O[Si](C)(C)O[Si](C)(C)Oc1c(*)c2ccccc2c2ccccc12 (repeat unit) | -35.00
16 | *CCN(CCOC(=O)Nc1ccc(C)c(NC(=O)O*)c1)c1ccc(/C=C2/NC(=O)NC2=O)cc1 (repeat unit) | 178.00
17 | *Cc1cc(C(C)(C)C)cc(*)c1O (repeat unit) | 50.00
18 | *Oc1ccc(CC(NC(=O)CCc2ccc(OC(=O)COCC(*)=O)cc2)C(=O)OCCCC)cc1 (repeat unit) | 64.00
19 | *[Si](*)(CCCC)CCCC (repeat unit) | -40.50
20 | *C1Oc2ccccc2C1* (repeat unit) | 65.20
21 | *CCCNC(=O)O* (repeat unit) | 26.00
22 | *NNC(=O)c1ccc(C(*)=O)cc1OCC (repeat unit) | 240.00
23 | *CCC1C(=O)N(CCCCNC(=O)C(F)(F)C(F)(F)C(F)(F)C(F)(F)C(F)(F)C(F)(F)C(F)(F)F)C(=O)C1* (repeat unit) | 100.00
24 | *C(F)(F)C1(F)C(F)(F)C(*)(F)C(F)(F)C(F)(F)C1(F)F (repeat unit) | 101.00
25 | *CCCCCCOC(=O)C(=O)O* (repeat unit) | 66.50
26 | *CC(CS(=O)(=O)CC)O* (repeat unit) | 57.00
27 | *[Si](*)(C)c1ccc(COCCN(CC)c2ccc(/N=N/c3ccc([N+](=O)[O-])cc3)cc2)cc1 (repeat unit) | 152.00
28 | *Oc1ccc(S(=O)(=O)c2ccc(Oc3c(C)cc(C(c4cc(C)c(*)c(C)c4)(C(F)(F)F)C(F)(F)F)cc3C)cc2C(O)(C(F)(F)F)C(F)(F)F)c(C(O)(C(F)(F)F)C(F)(F)F)c1 (repeat unit) | 196.00
29 | *Nc1ccc(CC(C)(C)NC(=O)CCC(*)=O)cc1 (repeat unit) | 158.00

Further lines, results first:

Row | glass transition temperature [°C] | SMILES
30 | 207.00 | *C(=O)Nc1ccc(Oc2ccc(C(C)(C)c3ccc(Oc4ccc(NC(=O)c5ccc6c(c5)C(=O)N(c5ccc(Oc7cccc(N8C(=O)c9ccc(*)cc9C8=O)c7)cc5)C6=O)cc4)cc3)cc2)cc1 (repeat unit)
31 | 250.00 | *c1ccc(NC2CC(=O)N(c3ccc(Cc4ccc(N5C(=O)CC(Nc6ccc(-c7nc(-c8ccc(/C=C/c9ccc([N+](=O)[O-])cc9)cc8)[nH]c7*)cc6)C5=O)cc4)cc3)C2=O)cc1 (repeat unit)
32 | 61.00 | *CCCCCCCCCCC(=O)Oc1ccc(-c2ccc(OC(=O)c3ccc4c(c3)C(=O)N(*)C4=O)cc2)cc1 (repeat unit)
33 | 280.00 | *c1ccc(Cc2ccc(N3C(=O)c4ccc([Si](C)(C)c5ccc6c(c5)C(=O)N(*)C6=O)cc4C3=O)cc2)cc1 (repeat unit)
34 | 307.50 | *c1ccc(Oc2ccc(-c3c(-c4ccccc4)nc4ccc(-c5ccc6nc(-c7ccccc7)c(*)c(-c7ccccc7)c6c5)cc4c3-c3ccccc3)cc2)cc1 (repeat unit)
35 | 73.00 | *O[Si](C)(C)COC(=O)CCCCCCCCC(=O)Oc1ccc(S(=O)(=O)c2ccc(Oc3ccc(/C=C4\CC/C(=C\c5ccc(Oc6ccc(S(=O)(=O)c7ccc(OC(=O)CCCCCCCCC(=O)OC[Si](*)(C)C)cc7)cc6)cc5)C4=O)cc3)cc2)cc1 (repeat unit)
36 | 40.00 | *CC(*)(C)C(=O)OCCCCCCOc1ccc(C(=O)Oc2ccc(/N=N/c3ccc(C)cc3)c3ccccc23)cc1 (repeat unit)
37 | 198.00 | *c1ccc(CCc2ccccc2N2C(=O)C(=O)N(c3ccc(Cc4ccc(N5C(=O)C(=O)N(*)C5=O)cc4)cc3)C2=O)cc1 (repeat unit)
38 | 264.00 | *Oc1ccc(S(=O)(=O)c2ccc(-c3ccc(-c4ccc(S(=O)(=O)c5ccc(Oc6ccc(-c7ccc(*)cc7)cc6)cc5)cc4)cc3)cc2)cc1 (repeat unit)
39 | 188.00 | *CCCC(=O)Nc1ccc(Oc2cccc(NC(=O)CCCN3C(=O)c4ccc(C(=O)c5ccc6c(c5)C(=O)N(*)C6=O)cc4C3=O)c2)cc1 (repeat unit)
40 | 295.00 | *C(=O)Nc1ccc(NC(=O)c2ccc(NC(=O)c3ccc(-c4nc5cc(*)ccc5[nH]4)cc3)cc2)cc1 (repeat unit)
41 | 227.00 | *C(=O)Nc1ccc(Oc2ccccc2-c2ccccc2Oc2ccc(NC(=O)c3ccc4c(c3)C(=O)N(c3ccc(Oc5ccccc5-c5ccccc5Oc5ccc(N6C(=O)c7ccc(*)cc7C6=O)cc5)cc3)C4=O)cc2)cc1 (repeat unit)
42 | 313.00 | *c1ccc(OC(=O)c2cc(Cl)cc(C(=O)Oc3ccc(C4(*)OC(=O)c5ccccc54)cc3)c2)cc1 (repeat unit)
43 | 70.00 | *Oc1ccc(OC(=O)c2ccc(OCCCCCCCCOc3ccc(C(*)=O)cc3)cc2)cc1C(=O)CC (repeat unit)
44 | 330.00 | *c1ccc2oc(-c3ccc(C(c4ccccc4)(c4ccc(-c5nc6cc(C(*)(c7ccccc7)C(F)(F)F)ccc6o5)cc4)C(F)(F)F)cc3)nc2c1 (repeat unit)
45 | 260.50 | *C(=O)c1ccc2c(c1)C(=O)N(c1cccc(C(=O)c3ccc(Cc4ccc(C(=O)c5cccc(N6C(=O)c7ccc(*)cc7C6=O)c5)cc4)cc3)c1)C2=O (repeat unit)
46 | 314.00 | *c1ccc(Oc2ccc(S(=O)(=O)c3ccc(Oc4ccc(-c5c6c(c(*)c7ccccc57)C(=O)N(C)C6=O)cc4)cc3)cc2)cc1 (repeat unit)
47 | 219.00 | *c1ccc(Oc2ccc(-c3nc(-c4cccc(-c5nnc(-c6ccccc6)c(*)n5)n4)nnc3-c3ccccc3)cc2)cc1 (repeat unit)
